Assay results: patent US20100093701A1, “COMBINATION THERAPY COMPRISING ANGIOTENSIN RECEPTOR BLOCKERS AND VASOPRESSIN RECEPTOR ANTAGONISTS” (priority 2008, published 2010)

Legend:
[1] = test system: remnant kidney model; experiment: Water intake and diuresis in remnant kidney model; type: in vivo, rat; conditions: mean ± S.E.
Text: (§1) The rat remnant kidney model is an animal model of severe progressive renal failure. In this model, a state of severe progressive renal failure is produced by renal mass reduction (RMR) through removal of one kidney and ligation of several branches of the renal artery, resulting in infarction and loss of function of two thirds of the remaining kidney. The procedure creates the conditions of severe hypertension, proteinuria, progressive renal function deterioration, tubulointerstitial damage and glomerulosclerosis (Olson J L, Hostetter T H, Rennke H G, Brenner B M, Venkatachalam M A: “Altered glomerular permselectivity and progressive sclerosis following extreme ablation of renal mass”. Kidney Int 22:112-126, 1982).
(§2) Treatment groups (n=12/group) included vehicle; Compound 1 at 30 mg/kg/d; losartan at 10 mg/kg; and losartan at 10 mg/kg+Compound 1 at 30 mg/kg/d. All compounds were administered in drinking water. An additional sham-operated untreated group was also included. Measurements were made at 21 d after RMR but before treatment, and at one and two months of treatment.

[2] = test system: rat remnant kidney model; experiment: Efficacy in rat remnant kidney model of nephropathy (renal mass reduction); type: in vivo; conditions: for Mortality Rates in Remnant Kidney Model / Mortality compared to the vehicle treated group: in drinking water; for Mortality Rates in Remnant Kidney Model: started 21 days after RMR, n=12/group; for Mortality compared to the vehicle treated group: Compound 1 30 mg/kg/d, losartan 10 mg/kg; for percentage of sclerotic glomeruli compared with vehicle: renal histology at termination of the experiment; for number of ED 1 positive cells per field (monocytes/macrophages in the renal interstitium): renal histology at termination, not statistically significant vs vehicle (61±5)
Text: as §1
Nephropathy is evident as a progressively increasing amount of protein in urine, increases in serum creatinine and increases in arterial pressure. In addition, severe sclerosis of the glomeruli, inflammatory cell infiltration and tubular damage are measurable through histological analysis within 3 months of RMR. These measures form the basis for determining efficacy in the model. Urine protein, serum creatinine and arterial pressure are similarly measured in humans to determine impact of treatments on disease progression.
The aim of this study was to evaluate the effects of Compound 1 compared to an angiotensin receptor blocker (losartan), as well as the combination treatment with Compound 1 and losartan, on proteinuria and renal disease progression in this model. The effectiveness of these agents has been associated with reductions in proteinuria, slowing of the rate of rise in serum creatinine and reduction in glomerular sclerosis and thus slowing of the progression to end stage renal failure.
as §2
At the termination of the experiment kidneys were examined quantitatively for histopathological damage. […] Accumulation of monocytes/macrophages in the renal interstitium was quantified as the number of ED 1 (an antibody to CD68, a monocyte/macrophage specific antigen) positive cells per field.

[3] = test system: rat remnant kidney model; experiment: Blood pressure in rat remnant kidney model; type: in vivo; conditions: 1- and 2-months of treatment
Text: as §1
as §2, with “Treatments were started 21 days after RMR, when animals already had overt nephropathy. Treatment” for “Treatment”, “treatment. Mortality was less in the Compound 1, losartan and Compound 1+ losartan groups compared to the vehicle treated group (Table 1). […]” for “treatment.”

[4] = 2 month of treatment, n = 10, 10 and 11
[5] = Pre-treatment (21 d after RMR), n = 12

Row | Structure (SMILES) | diuresis ([1]; 1 month of treatment, n = 12) | water intake ([1]; 1 month of treatment, n = 12) | diuresis [1, 4] | water intake [1, 4] | diuresis [1, 5] | water intake [1, 5] | diuresis ([1]; basal, n = 12) | water intake ([1]; basal, n = 12) | Mortality Rates in Remnant Kidney Model ([2]; 1 month of treatment) | Mortality Rates in Remnant Kidney Model ([2]; 2 month of treatment) | Mortality compared to the vehicle treated group [2] | serum creatinine compared to the vehicle group ([2]; at 1 and 2 months of treatment) | urine protein excretion compared to the vehicle group ([2]; at 1 and 2 months of treatment) | percentage of sclerotic glomeruli compared with vehicle [2] | number of ED 1 positive cells per field (monocytes/macrophages in the renal interstitium) [2] | arterial pressure compared to vehicle [3] | statistical significance of the effect on urine protein excretion ([2]; at 1 and 2 months of treatment)
1 | COc1cc(C(=O)N2CC[C@]3(C=C(C(=O)O)CC3)Cc3ccccc32)ccc1NC(=O)c1cc(F)ccc1Cl [Compound 1] | 47 ± 4 mL/24 h | 70 ± 8 mL/24 h | 43 ± 5 mL/24 h | 72 ± 10 mL/24 h | 44 ± 3 mL/24 h | 65 ± 2 mL/24 h | 19 ± 1 mL/24 h | 43 ± 2 mL/24 h | 12/12 | 2/12 | less | reduced | reduced | tended to decrease | 45±5 positive cells per field | tended to decrease | –
2 | CCCCc1nc(Cl)c(CO)n1Cc1ccc(-c2ccccc2-c2nn[nH]n2)cc1 [losartan] | 45 ± 3 mL/24 h | 77 ± 4 mL/24 h | 45 ± 4 mL/24 h | 76 ± 5 mL/24 h | 45 ± 3 mL/24 h | 68 ± 4 mL/24 h | 20 ± 1 mL/24 h | 46 ± 2 mL/24 h | 12/12 | 2/12 | less | reduced | reduced | significant reduction | 38±6 positive cells per field | statistically significant decrease | not statistically significant
